The subject of this assay is Glomerella lagenarium (Colletotrichum lagenarium). As to the kind of experiment: Fungicidal activity against Glomerella lagenarium (Colletotrichum lagenarium) liquid culture / cucumber / preventative (anthracnose). Type of assay: cell-based. The note with it: Colletotrichum orbiculare; 20 ppm in the applied formulation; liquid culture (PDB), growth inhibition measured photometrically after 3 to 4 days; compared to untreated control; read-out: disease control. The procedure:
Mycelia fragments or conidia suspensions of a fungus prepared either freshly from liquid cultures of the fungus or from cryogenic storage, are directly mixed into nutrient broth. DMSO solutions of the test compound (max. 10 mg/ml) are diluted with 0.025% Tween20 by a factor of 50 and 10 μl of this solution is pipetted into a microtiter plate (96-well format). The nutrient broth containing the fungal spores/mycelia fragments is then added to give an end concentration of the tested compound. The test plates are incubated in the dark at 24° C. and 96% relative humidity. The inhibition of fungal growth is determined photometrically after 2 to 7 days, depending on the pathosystem, and percent antifungal activity relative to the untreated check is calculated.
Fungicidal activity against Glomerella lagenarium (Colletotrichum lagenarium) liquid culture/cucumber/Preventative (Anthracnose)
Conidia of the fungus from cryogenic storage are directly mixed into nutrient broth (PDB—potato dextrose broth). After placing a (DMSO) solution of test compound into a microtiter plate (96-well format), the nutrient broth containing the fungal spores is added.
The following compounds at 20 ppm in the applied formulation give at least 80% disease control in this test when compared to untreated control under the same conditions, which show extensive disease development.

The structures appear in SMILES notation.

As to `COCCCC(=O)N(Cc1ccc(-c2noc(C(F)(F)F)n2)cc1)OCc1ccc(Cl)cc1` [Compound 1.555, N-[(4-chlorophenyl)-methoxy]-4-methoxy-N-[[4-[5-(trifluoromethyl)-1,2,4-oxadiazol-3-yl]phenyl]methyl]-butanamide], the inhibition of growth at 20 ppm is ≥ 80%.
Then `COc1cccc(C2(C(=O)N(Cc3ccc(-c4noc(C(F)(F)F)n4)cc3)OC)CC2)c1` [Compound 1.72, N-methoxy-1-(3-methoxyphenyl)-N-[[4-[5-(trifluoromethyl)-1,2,4-oxadiazol-3-yl]phenyl]methyl]-cyclopropane-carboxamide], with ≥ 80%; and `COc1ccccc1C(=O)N(Cc1ccc(-c2noc(C(F)(F)F)n2)cc1)OC` [Compound 1.7, N,2-dimethoxy-N-[[4-[5-(trifluoromethyl)-1,2,4-oxadiazol-3-yl]phenyl]methyl]-benzamide], with ≥ 80%.
Then `O=C(C1CC1)N(Cc1ccc(-c2noc(C(F)(F)F)n2)cc1)OCc1ccc(Cl)cc1` [Compound 1.561, N-[(4-chlorophenyl)-methoxy]-N-[[4-[5-(trifluoromethyl)-1,2,4-oxadiazol-3-yl]phenyl]methyl]-cyclopropane-carboxamide], with ≥ 80%; and `O=C(C1CC1)N(Cc1ccc(-c2noc(C(F)(F)F)n2)cc1)OCC=C(Cl)Cl` [Compound 1.548, N-(3,3-dichloroallyloxy)-N-[[4-[5-(trifluoromethyl)-1,2,4-oxadiazol-3-yl]phenyl]methyl]-cyclopropane-carboxamide], with ≥ 80%.
Under `CCCCOC(=O)N(Cc1ccc(-c2noc(C(F)(F)F)n2)cc1)OC` [Compound 2.12, butyl N-methoxy-N-[[4-[5-(trifluoromethyl)-1,2,4-oxadiazol-3-yl]phenyl]methyl]-carbamate] stands ≥ 80%; under `O=C(C1OCCO1)N(Cc1ccc(-c2noc(C(F)(F)F)n2)cc1)OCC=C(Cl)Cl` [Compound 1.547], ≥ 80%; under `O=C(CC1CC1)N(Cc1ccc(-c2noc(C(F)(F)F)n2)cc1)CC1CC1` [Compound 1.211, 2-cyclopropyl-N-(cyclopropylmethyl)-N-[[4-[5-(trifluoromethyl)-1,2,4-oxadiazol-3-yl]phenyl]methyl]-acetamide], ≥ 80%.
For `O=C(N(Cc1ccc(-c2noc(C(F)(F)F)n2)cc1)CC1CC1)C1(C(F)(F)F)CC1` [Compound 1.203, N-(cyclopropylmethyl)-1-(trifluoromethyl)-N-[[4-[5-(trifluoromethyl)-1,2,4-oxadiazol-3-yl]phenyl]methyl]-cyclopropane-carboxamide], the inhibition of growth at 20 ppm was ≥ 80%.
Then `N#Cc1ccc(CC(=O)N(Cc2ccc(-c3noc(C(F)(F)F)n3)cc2)CC2CC2)cc1` [Compound 1.236, 2-(4-cyanophenyl)-N-(cyclopropylmethyl)-N-[[4-[5-(trifluoromethyl)-1,2,4-oxadiazol-3-yl]phenyl]methyl]-acetamide], with ≥ 80%.
Then `CCC1(C(=O)N(Cc2ccc(-c3noc(C(F)(F)F)n3)cc2)OC)C(C)C1(Cl)Cl` (stereo not shown) [Compound 1.61, 2,2-dichloro-1-ethyl-N-methoxy-3-methyl-N-[[4-[5-(trifluoromethyl)-1,2,4-oxadiazol-3-yl]phenyl]methyl]-cyclopropane-carboxamide], with ≥ 80%; and `COC(C)C(=O)N(Cc1ccc(-c2noc(C(F)(F)F)n2)cc1)OCC=C(Cl)Cl` (stereo not shown) [Compound 1.546, N-(3,3-dichloroallyloxy)-2-methoxy-N-[[4-[5-(trifluoromethyl)-1,2,4-oxadiazol-3-yl]phenyl]methyl]-propanamide], with ≥ 80%; and `O=C(Cc1ccccc1Cl)N(Cc1ccc(-c2noc(C(F)(F)F)n2)cc1)C1CC1` [Compound 1.94, 2-(2-chlorophenyl)-N-cyclopropyl-N-[[4-[5-(trifluoromethyl)-1,2,4-oxadiazol-3-yl]phenyl]methyl]-acetamide], with ≥ 80%.

Source of the values: patent US11180462B2, “Microbiocidal oxadiazole derivatives” (SYNGENTA PARTICIPATIONS AG, priority 2015, dated 2021).
